Laboratory results taken from patent US9771389B2, “Tylosin derivatives and method for preparation thereof” (BAYER ANIMAL HEALTH GMBH, priority 2013, dated 2017).
Converted amounts (≈) assume the structure as drawn.

Assays:
[1] = system: Escherichia coli NIHJ; assay: Paper disc assay, Escherichia coli; type: cell-based; conditions: c
Method: (§1) (2) Antibacterial activities against other bacteria were determined with Micrococcus luteus ATCC9341 (1), Bacillus subtilis […] (s), Escherichia coli NIHJ (c), Xanthomonas campestris KB88 (X), Mucor racemosus IFO 4581 (Mu) and Candida albicans ATCC 64548 (Ca).
(§2) Bacillus subtilis ATCC6633 was incubated in Davis synthetic medium and then the seed broth was combined with the medium in the ratio of 1:99 to obtain a test plate. Micrococcus luteus ATCC9341, Escherichia coli NIHJ and Xanthomonas campestris KB88 were respectively incubated in Nutrient agar medium and inoculated at 0.2%, 0.5% and 1.0%. Mucor racemosus IFO 4581 and Candida albicans ATCC 64548 were respectively incubated in GY agar medium and then inoculated at 0.3% and 0.2%.
(§3) A paper disc (ADVANTEC, Φ:6 mm) was impregnated with a solution of test compound and dried under reduced pressure. The paper disc was put on the test plate and it was incubated for 24 hours at 37° C. After incubation, the inhibition zone diameter and clarity (A to E) were determined.

[2] = system: M. hemolytica KB346 (Tilmicosin-low sensitivity strain); assay: Paper disc assay, M. hemolytica KB346; type: cell-based, Mannhemia hemolytica; conditions: 10 mg/6 mm disk; Table 5
Method: (1) Antibacterial activities against Mannheimia and Pasteurella were determined by the following steps: • 1) M. hemolytica KB345 (Tilmicosin-sensitivity strain) and M. hemolytica KB346 (Tilmicosin-low sensitivity strain) were provided. KB 345 strain stored at −80° C. was seeded to BHIB agar medium (10 mL) by using Microbank beads (Pro-Lab) and platinum nail. After statically incubating the KB 345 strain for 24 hours at 37° C., it was seeded to maintaining slant BHIB agar medium (7 mL) by using platinum loop, further statically incubated for 24 hours at 37° C. to obtain slant. One platinum loop of KB 345 strain stored at the slant was inoculated into a large test tube charged with BHIB liquid medium (10 mL) and then incubated for 24 hours at 37° C. with shaking. • 2) A paper disc (ADVANTEC, Φ:6 mm) was impregnated with a solution of test compound and dried under reduced pressure. • 3) To a melted BHIB agar medium was inoculated 1% of the broth obtained from step 1) above to prepare a test plate. After the medium set, the paper disc prepared in step 2) above was put on the plate and it was incubated at 37° C. • 4) After one day, the inhibition zone diameter and clarity (A to E) were determined. For KB346 strain, the same procedures were repeated.

[3] = system: Micrococcus luteus ATCC9341; assay: Paper disc assay, Micrococcus luteus; type: cell-based; conditions: column 1
Method: as §1, §2, §3

[4] = system: Bacillus subtilis ATCC6633; assay: Paper disc assay, Bacillus subtilis; type: cell-based; conditions: S
Method: as §1, §2, §3

[5] = system: Xanthomonas campestris KB88; assay: Paper disc assay, Xanthomonas campestris; type: cell-based; conditions: X
Method: as §1, §2, §3

[6] = system: Staphylococcus aureus; assay: MIC50 mastitis pathogens, broth dilution; type: cell-based; conditions: S. aureus, 7 to 12 isolates, 24 hours
Excerpt: (§4) The activity of several compounds against bacterial mastitis pathogens has been tested under in-vitro conditions according to a recognized procedure (CLSI, document […]-A3, 2008). In this test 7 to 12 representative bacteria belonging to 7 bacterial species that typically cause mastitis in dairy cattle, i.e. Staphylococcus aureus, coagulase negative staphylococci (CNS), Streptococcus uberis, Streptococus dysgalactiae, Streptococcus agalactiae, Arcanobacterium pyogenes and Escherichia coli, were exposed to two-fold dilutions of the test compounds. After 24 hours of incubation the concentration that inhibited the growth of this bacteria was determined. It could be shown that all these bacterial mastitis pathogens were highly susceptible to the test compounds.

[7] = system: Arcanobacterium pyogenes; assay: MIC50 mastitis pathogens, broth dilution; type: cell-based; conditions: Trueperella pyogenes, A. pyogenes, 7 to 12 isolates, 24 hours
Excerpt: as §4

[8] = system: Streptococus dysgalactiae; assay: MIC50 mastitis pathogens, broth dilution; type: cell-based; conditions: Str dysgalactiae, 7 to 12 isolates, 24 hours
Excerpt: as §4

[9] = system: Streptococcus agalactiae; assay: MIC50 mastitis pathogens, broth dilution; type: cell-based; conditions: Str agalactiae, 7 to 12 isolates, 24 hours
Excerpt: as §4

[10] = system: Escherichia coli; assay: MIC50 mastitis pathogens, broth dilution; type: cell-based; conditions: E. coli, 7 to 12 isolates, 24 hours
Excerpt: as §4

[11] = system: coagulase negative staphylococci (CNS); assay: MIC50 mastitis pathogens, broth dilution; type: cell-based; conditions: 7 to 12 isolates, 24 hours
Excerpt: as §4

[12] = system: Streptococcus uberis; assay: MIC50 mastitis pathogens, broth dilution; type: cell-based; conditions: Str uberis, 7 to 12 isolates, 24 hours
Excerpt: as §4

[13] = system: S. aureus bacteria (strain Newbould); assay: Mouse mastitis model of infection; type: in vivo, mice; conditions: for mean S. aureus count in glands: 14 hours after application, untreated 8.64 log 10
Excerpt: The clinical efficacy of compound YT709 against mastitis caused by S. aureus was shown in lactating mice according to a recognized published procedure (E. Brouillette, G. Grondin, C. Lefebvre, B. G. Talbot, F. Malouin, Mouse mastitis model of infection for antimicrobial compound efficacy studies against intracellular and extracellular forms of Staphylococcus aureus, Veterinary Microbiology, 101, (2004), 253-262). Into the glands of lactating mice S. aureus bacteria (strain Newbould) were instilled and allowed to multiply. Bacterium S. aureus Newbould is an isolate which was isolated from a clinical case of bovine mastitis and which also causes typical mastitis infection in dairy cattle upon experimental, intramammary infection. Four hours after the intramammary infection of lactating mice with S. aureus Newbould, compound YT709 was instilled into the infected glands. Different intramammary dosages of YT709 were tested and their efficacy compared to an infected, untreated control group. Fourteen hours after intramammary application of YT709, the glands of the treated and untreated mice were removed, homogenized and the number of S. aureus bacteria counted in 10-fold dilutions of the homogenized glands. The mean S. aureus count of 8 untreated glands was 10^8.64 (8.64 log 10) bacteria. The mean S. aureus count in 6 glands that had been treated with 200 microgram YT709 was 10^5.10 bacteria (5.10 log 10). […] The mean S. aureus count in the 5 glands that had been treated with 400 microgram YT709 was 10^2.34 bacteria (2.34 log 10).

[14] = system: Mannheimia haemolytica, 3 isolates; assay: MIC against Mannheimia haemolytica isolates; type: cell-based; conditions: Mannheimia haemolytica, 3ISOLATES, 3 Mannheimia haemolytica isolates; broth dilution method; read-out: Range of minimum inhibitory concentrations (MIC)
Method: (§5) Minimal inhibitory concentrations (MICs) were determined against the most prevalent pathogens in cattle (Mannheimia Haemolytica, 3 isolates) and swine (A. pleuropneumoniae, 6 isolates). In addition the activity of several compounds was tested against two bacterial species, i.e. Mannheimia haemolytica and Actinobacillus pleuropneumoniae, which are considered as the most important bacterial respiratory pathogens in cattle and swine, respectively.

[15] = system: Actinobacillus pleuropneumoniae, 6 isolates; assay: MIC against Actinobacillus pleuropneumoniae isolates; type: cell-based; conditions: 6ISOLATES; 6 Actinobacillus pleuropneumoniae isolates; broth dilution method; read-out: Range of minimum inhibitory concentrations (MIC)
Method: as §5

Row | MIC50 [6] | MIC50 [7] | MIC50 [8] | MIC50 [9] | MIC50 [10] | MIC50 [11] | MIC50 [12] | MIC [15] | Compound | Inhibition zone ([1]; 10 mg/6 mm disc) | Inhibition zone ([3]; 0.1 mg/6 mm disc) | Inhibition zone ([3]; 1 mg/6 mm disc) | Inhibition zone ([3]; 10 mg/6 mm disc) | Inhibition zone ([4]; 0.1 mg/6 mm disc) | Inhibition zone ([4]; 1 mg/6 mm disc) | Inhibition zone ([4]; 10 mg/6 mm disc) | Inhibition zone ([5]; 0.1 mg/6 mm disc) | Inhibition zone ([5]; 1 mg/6 mm disc) | Inhibition zone ([5]; 10 mg/6 mm disc) | MIC [14] | other results
1 |  |  |  |  |  |  |  |  | CC[C@H]1OC(=O)C[C@@H](O)[C@H](C)[C@@H](O[C@@H]2O[C@H](C)[C@@H](O)[C@H](N(C)C)[C@H]2O)[C@@H](CCN2C[C@H](C)C[C@H](C)C2)C[C@@H](C)C(=O)/C=C/C(C)=C/[C@@H]1CO[C@@H]1O[C@H](C)[C@@H](O)[C@@H](OC)[C@H]1OC [Tilmicosin, tilmicosin, reference compound] | 20 mm | 12 mm | 19 mm | 27.5 mm | 14 mm | 11 mm | 18 mm | 12 mm | 20 mm | 30 mm |  | Inhibition zone ([1]; 1 mg/6 mm disc): 13 mm; Inhibition zone [2]: 11.0 mm
2 |  |  |  |  |  |  |  |  | CC[C@H]1OC(=O)C[C@@H](O)[C@H](C)[C@@H](O[C@@H]2O[C@H](C)[C@@H](O)[C@H](N(C)C)[C@H]2O)[C@@H](CCn2cc(-c3ccsc3)nn2)C[C@@H](C)C(=O)/C=C/C(C)=C/[C@@H]1CO[C@@H]1O[C@H](C)[C@@H](O)[C@@H](OC)[C@H]1OC [YT14, 20-(4-(thiophene-3-yl)-1H-1,2,3-triazol-1-yl)-20-deoxodesmycosin] | 7 mm | 13.5 mm | 20.5 mm | 26.5 mm | 8 mm | 11 mm | 15 mm | 7 mm | 16 mm | 22 mm |  | 
3 | 0.25 µg/mL (≈ 0.304 µM) | 0.004 µg/mL (≈ 0.00487 µM) | 0.03 µg/mL (≈ 0.0365 µM) | 0.008 µg/mL (≈ 0.00974 µM) | 8 µg/mL (≈ 9.74 µM) | 0.25 µg/mL (≈ 0.304 µM) | 0.03 µg/mL (≈ 0.0365 µM) |  | CC[C@H]1OC(=O)C[C@@H](O)[C@H](C)[C@@H](O[C@@H]2OC(C)[C@@H](O)C(N(C)C)C2O)[C@@H](CCN(C)Cc2cn(-c3cnc4ccccc4c3)nn2)C[C@@H](C)C(=O)/C=C/C(C)=C/[C@@H]1CO (stereo partly shown) [YT650] |  |  |  |  |  |  |  |  |  |  |  | 
4 | ≤ 0.03 µg/mL | 0.008 µg/mL (≈ 0.00892 µM) | 0.06 µg/mL (≈ 0.0669 µM) | 0.06 µg/mL (≈ 0.0669 µM) | 16 µg/mL (≈ 17.8 µM) | ≤ 0.03 µg/mL | 0.06 µg/mL (≈ 0.0669 µM) | 2 to 4 µg/mL (≈ 2.23 to 4.46 µM) | CC[C@H]1OC(=O)C[C@@H](O)[C@H](C)[C@@H](O[C@@H]2OC(C)[C@@H](O)C(N(C)C)C2O)[C@@H](CCN(Cc2ccccc2)Cc2cn(-c3cnc4ccccc4c3)nn2)C[C@@H](C)C(=O)/C=C/C(C)=C/[C@@H]1CO (stereo partly shown) [YT709] |  |  |  |  |  |  |  |  |  |  | 2 to 4 µg/mL (≈ 2.23 to 4.46 µM) | reduction of number of bacteria vs untreated glands ([13]; 200 microgram intramammary): about 3500 fold; mean S. aureus count in glands ([13]; 200 microgram intramammary, 6 glands): 5.10 log 10; glands in which the infection was cleared ([13]; 400 microgram intramammary): 2 out of 5; reduction of number of bacteria vs untreated glands ([13]; 400 microgram intramammary): about two million; mean S. aureus count in glands ([13]; 400 microgram intramammary, 5 glands): 2.34 log 10
5 | 0.5 µg/mL (≈ 0.591 µM) | 0.06 µg/mL (≈ 0.0709 µM) | 0.25 µg/mL (≈ 0.295 µM) | 0.125 µg/mL (≈ 0.148 µM) | 8 µg/mL (≈ 9.46 µM) | 0.5 µg/mL (≈ 0.591 µM) | 0.12 µg/mL (≈ 0.142 µM) | 8 µg/mL (≈ 9.46 µM) | CC[C@H]1OC(=O)C[C@@H](O)[C@H](C)[C@@H](O[C@@H]2OC(C)[C@@H](O)C(N(C)C)C2O)[C@@H](CCNCCn2cc(-c3ccc(-c4ccccc4)cc3)nn2)C[C@@H](C)C(=O)/C=C/C(C)=C/[C@@H]1CO (stereo partly shown) [YT721] |  |  |  |  |  |  |  |  |  |  | 1 to 4 µg/mL (≈ 1.18 to 4.73 µM) | 
